Source: US20090048301A1 (IMCLONE SYSTEMS INCORPORATED, priority 2003, published 2009)

Columns and labels:
bovine tubulin = experiment: In vitro tubulin polymerization assay (turbidity at 340 nm); format: biochemical; details: 10 μM compound, 30 minute data point, vs 1% DMSO control
How it was run: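 Percent inhibition derives from turbidity (340 nm) at 30 min relative to 1% DMSO controls, read every minute at 37° C. Polymerization mix: 3 mg/ml bovine tubulin, <3% MAPs, in PIPES pH 7 G-PEM with 1 mM GTP, 1 mM MgCl2, 5% glycerol; enhancers also detectable.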

[1] = system: A431, human epidermoid carcinoma cells; experiment: Cell cycle analysis (FACS), mitotic arrest in G2/M; format: cell-based; details: Homo sapiens, A-431, 24 h, read-out: FACS Assay: concentration required to achieve inhibition in FACS assay
Protocol: The cell cycle analysis was performed as follows. Cancer cells (A431, human epidennoid carcinoma cells) were maintained in culture in D-MEM media with 10% FBS and 1 mg/ml glutamate. Prior to experiment, cells were plated onto 6-well plates for a final density of 500,000 cells/well at the time of treatment. Cells were treated with the compounds of the invention at a concentration of about 0.01 to 1 μM final concentrations (final 0.1% DMSO) for 24 hours, then trypsinized, collected, rinsed in PBS (phosphate buffered saline), and fixed in 70% cold ethanol overnight at 4° C. The cells were then rinsed with PBS, resuspended in PBS with 0.2% Tween, RNAse was added (final 1 μg/ml), cells were incubated at 37° C. for 15 min, followed by addition of Propidium Iodide (final 50 μg/ml), and a 30 minute incubation at room temperature. DNA ploidy was analyzed using flow cytometers (Epics Excel, Beckman-Coulter, or Guava PCA-96, Guava Technologies) and mitotic arrest characterized by massive accumulation of cells in the G2/M phase of cell cycle.
Cancer cells (A431, human epidermoid cells) were maintained in culture in D-MEM media with 10% FBS and 1 mg/ml glutamate. Prior to experiment, cells are plated onto 6-well plates for a final density of 500,000 cells/well at the time of treatment. Cells were treated with compounds at 0.01-1 μM final concentrations (final […] DMS 0) for 24 hours, then trypsinized, collected, rinsed in PBS (phosphate buffered saline), and fixed in 70% cold ethanol overnight at 4° C. Cells were then rinsed with PBS, resuspended in PBS with 0.2% Tween, RNAse was added (final 1 μg/ml), cells were incubated at 37° C. for 15 min, followed by addition of Propidium Iodide (final 50 μg/ml), and a 30 minute incubation at room temperature. DNA ploidy was analyzed using cell sorters (Epics Excel, Beckman-Coulter, or Guava PCA-96, Guava Technologies) and mitotic arrest characterized by massive accumulation of cells in the G2/M phase of cell cycle.

Row | Compound | Tubulin Assay: percent inhibition at 10 μM based on 30 minute data (bovine tubulin) | minimal effective concentration [1]
1 | c1cnc(Nc2ccc3c(c2)OCO3)c(-c2nnc(Nc3ccc4c(c3)OCO4)[nH]2)c1 [Compound 32, Benzo[1,3]dioxol-5-yl-{3-[5-(benzo[1,3]dioxol-5-ylamino)-4H-[1,2,4]triazol-3-yl]-pyridin-2-yl}-amine] | 54% | 10 µM
2 | c1cnc(NCc2ccncc2)c(-c2nnc(Nc3ccc4c(c3)OCO4)[nH]2)c1 [Compound 38, {3-[5-(Benzo[1,3]dioxol-5-ylamino)-4H-[1,2,4]triazol-3-yl]-pyridin-2-yl}-pyridin-4-ylmethyl-amine] | 77% | 0.1 µM
3 | COc1cccc(Nc2nnc(-c3cccnc3NCc3ccncc3)[nH]2)c1 [Compound 39, {3-[5-(3-Methoxy-phenylamino)-4H-[1,2,4]triazol-3-yl]-pyridin-2-yl}-pyridin-4-ylmethyl-amine] | 83% | 0.1 µM
4 | c1coc(CNc2ncccc2-c2nnc(Nc3ccc4c(c3)OCO4)[nH]2)c1 [Compound 40, {3-[5-(Benzo[1,3]dioxol-5-ylamino)-4H-[1,2,4]triazol-3-yl]-pyridin-2-yl}-furan-2-ylmethyl-amine] | 71% | 1 µM
5 | COc1cccc(Nc2nnc(-c3cccnc3NCc3ccco3)[nH]2)c1 [Compound 42, Furan-2-ylmethyl-{3-[5-(3-methoxy-phenylamino)-4H-[1,2,4]triazol-3-yl]-pyridin-2-yl}-amine] | 69% | 10 µM
6 | Fc1ccc(CNc2ncccc2-c2nnc(Nc3ccc4c(c3)OCO4)[nH]2)cc1F [Compound 43, {3-[5-(Benzo[1,3]dioxol-5-ylamino)-4H-[1,2,4]triazol-3-yl]-pyridin-2-yl}-(3,4-difluoro-benzyl)-amine] | 84% | 1 µM
7 | Fc1ccc(CNc2ncccc2-c2nnc(Nc3ccc4c(c3)OCCO4)[nH]2)cc1F [Compound 44, (3,4-Difluoro-benzyl)-{3-[5-(2,3-dihydro-benzo[1,4]dioxin-6-ylamino)-4H-[1,2,4]triazol-3-yl]-pyridin-2-yl}-amine] | 84% | 1 µM
8 | COc1cccc(Nc2nnc(-c3cccnc3NCc3ccc(F)c(F)c3)[nH]2)c1 [Compound 45, (3,4-Difluoro-benzyl)-{3-[5-(3-methoxy-phenylamino)-4H-[1,2,4]triazol-3-yl]-pyridin-2-yl}-amine] | 83% | 1 µM
9 | c1ccc(-c2cnc(Nc3ccc4c(c3)OCCO4)o2)c(OCc2ccncc2)c1 [Compound 253, (2,3-Dihydro-benzo[1,4]dioxin-6-yl)-{5-[2-(pyridin-4-ylmethoxy)-phenyl]-oxazol-2-yl}-amine] | 44% | –
10 | c1cncc(COc2ccccc2-c2cnc(Nc3ccc4c(c3)OCCO4)o2)c1 [Compound 254, (2,3-Dihydro-benzo[1,4]dioxin-6-yl)-{5-[2-(pyridin-3-ylmethoxy)-phenyl]-oxazol-2-yl}-amine] | 95% | –
11 | COc1cccc(Nc2ncc(-c3ccccc3OCc3ccncc3)o2)c1 [Compound 256, (3-Methoxy-phenyl)-{5-[2-(pyridin-4-ylmethoxy)-phenyl]-oxazol-2-yl}-amine] | 50% | –
12 | COc1cccc(Nc2ncc(-c3ccccc3OCc3cccnc3)o2)c1 [Compound 257, (3-Methoxy-phenyl)-{5-[2-(pyridin-3-ylmethoxy)-phenyl]-oxazol-2-yl}-amine] | 27% | –
13 | COCCCOc1ccccc1-c1cnc(Nc2cccc(OC)c2)o1 [Compound 258, (3-Methoxy-phenyl)-{5-[2-(3-methoxy-propoxy)-phenyl]-oxazol-2-yl}-amine] | 47% | –
